Laboratory results as given in US20220356163A1, “SMALL MOLECULE INHIBITORS OF Id PROTEINS” (MEMORIAL SLOAN KETTERING CANCER CENTER, priority 2019, published 2022).
pIC50: −log10 of the molar value. Where two headings read alike, the source gives them in different places.

Assays:
HUVEC = HUVEC growth, cell cycle and Cyclin D1; type: cell-based, human
Protocol: Immunoblotting. For immunoblotting, cells were collected by trypsinization, washed with PBS and lysed in homogenization buffer (0.3 M sucrose, 10 mM Tris (pH 8.0), 400 mM sodium chloride, 3 mM magnesium chloride, 0.5% NP40/IGEPAL, 100 μg/mL Aprotinin+Protease inhibitor cocktail (Roche #11 836 153 001). Proteins were separated by SDS-PAGE, transferred to a membrane (LI-COR), probed with primary antibodies overnight at 4° C., and probed with secondary antibodies (LI-COR) for 1-2 hours at room temperature. Proteins were visualized using the LI-COR Odyssey Infrared Imaging detection system. The following primary antibodies were used Id1, Id2, Id3, Id4 (195-14, 9-2-8, 17-3, 82-12, respectively, all from Biocheck), Cyclin D1 (2978, Cell Signaling), Actin (A2066, Sigma), Tubulin (T4026, Sigma). Western blot quantification was carried out using channel 700 and channel 800 intensity data from Odyssey application software version 3.0.30 (LI-COR), subtracting blank values and normalizing to Tubulin.
(§1) Cell viability assays. Cell lines were seeded in a 96 well plate (5000 cells per well). After overnight incubation, cells were treated with AGX51 and incubated for 24 hours then MTT reagent (5 mg/mL) was added per well and the cells were incubated for four hours. Following incubation, media was aspirated and 200 μL DMSO was added per well. Absorbance was then measured at 570 nm using a plate reader (Synergy 2, BioTek). Cell growth profiles were determined by seeding 38,000 cells in a 24-well plate, in triplicate for each time point, and counting the cells on days 1, 3 and 5 after seeding, using trypan blue exclusion of dead cells.
Cell cycle analysis. […] For cell cycle analysis cells were centrifuged 1000 rpm for 5 minutes, washed with 1×PBS and then resuspended in 0.5 mL PI/RNase staining buffer (550825, BD Biosciences), incubated for 15 minutes at room temperature and analyzed by flow cytometry (LSR II).

[1] = system: choroidal neovascularization; assay: Laser-induced choroidal neovascularization (CNV) model of AMD; type: in vivo, mouse
Description: Mouse mode/s of ocular neovascularization. CNV was induced as previously described. Tobe et al., Am. J. Pathol., 153, 1641-1646 (1998). Briefly, 4-6 week-old female Id1^−/− or Id3^−/− mice and littermate control Id1^+/+ or Id3^+/+ mice (all in C57BL/6 background) had laser-induced rupture of Bruch's membrane at three locations in each eye and after 14 days mice were euthanized, eyes were removed, and choroidal flat mounts were stained with FITC-labeled Griffonia simplicifolia lectin (Vector Laboratories, Burlingame, Calif.) which selectively stains vascular cells (n=12 mice per group). Flat mounts were examined by fluorescence microscopy and the area of each CNV was measured by image analysis with Image-Pro Plus software (Media Cybernetics, Silver Spring, Md.) by an observer masked with respect to experimental groups. In other experiments, wild type 4-6 week-old, female, C57BL/6 mice had rupture of Bruch's membrane in each eye followed by intravitreal injection of 1-30 μg of AGX51 (racemic, E1 or E2) or vehicle in one eye immediately and after 7 days or mice were given twice daily i.p. injections of 500 μg of AGX51 or vehicle for 14 days (n=7-10 mice per group). The area of CNV was measured 14 days after rupture of Bruch's membrane. For Aflibercept and AGX-A treatment experiments, rupture of Bruch's membrane was carried out and then mice were treated with 40 μg of Aflibercept, 10 μg of AGX51E2, 1-5 μg of AGX51, 1-5 μg of AGX-A, DMSO or combinations. The mice were 4-6 week-old female C57BL/6. After 14 days, the mice were euthanized and CNV was measured as described above.

EGI-1 = assay: Cholangiocarcinoma cell viability, EGI-1; type: cell-based
Protocol: as §1
The effects of AGX51 and AGX-A on cholangiocarcinoma cell viability were assessed for the six different cholangiocarcinoma cell lines. The measured IC50 values (in μM) from these studies are provided in Table 2 below, along with the ratio of the AGX51 IC50 to the AGX-A IC50 to aid in comparison.

lung metastases = assay: LLC metastasis model; type: in vivo, mouse; conditions: daily ip
Protocol: Thirty C57BL/6 mice will be implanted with 7.5×10^5 LLC cancer cells/animal. Seven days after implantation, 5M/5F per group will be treated daily ip for 25 days with dosing vehicle (DMSO), AGX51, or a compound of the present technology (such as AGX-A). Fourteen days after implantation, another group of 5M/5F animals will be treated daily ip for 18 days with 50 mg/kg of AGX51 and another group of 5M/5F animals will be treated daily ip for 18 days with a compound of the present technology (such as AGX-A). Tumors will be measured three times from Day 7 to 14. On Day 14, the tumors will be excised. The animals will be necropsied for the presence of lung metastases on day 32, 18 days post excision.

Structure (SMILES) | Cyclin D1 levels (HUVEC; 0-40 μM, 24 hours) | cell viability (HUVEC; 20 μM) | cell cycle (HUVEC; 20 μM, 24 hours) | CNV area relative to vehicle control ([1]; i.p. 50 μL of 10 mg/mL bid, day 14) | CNV area ([1]; intravitreal 5 μg, days 1 and 7, p<0.05) | Id1 immunofluorescence in CNV regions ([1]; intravitreal injection) | CNV area relative to vehicle ([1]; twice daily i.p. injections (~30 mg/kg), p<0.05) | CNV area relative to vehicle ([1]; two intravitreal injections of 10 μg (2 h and 7 days), day 14, p<0.05) | pIC50 (EGI-1; Homo sapiens) | lung metastases (lung metastases) | CNV area, AGX-A vs AGX51 ([1]; intravitreal 1 μg dose) | (AGX51 IC50)/(AGX-A IC50) (EGI-1) | pIC50 (EGI-1)
CCC(=O)N(CCC(c1ccc2c(c1)OCO2)c1ccccc1OC)Cc1ccccc1 (racemic) [AGX51, N-(3-(benzo[d][1,3]dioxol-5-yl)-3-(2-methoxyphenyl)propyl)-N-benzylpropionamide] | reduction in Cyclin D1 levels | reduced cell viability | G0/G1 growth arrest | reduced CNV area significantly | effective at significantly reducing CNV | no Id1 positive cells | significantly reduced CNV | significantly suppressed CNV | 4.80 | profoundly diminish lung metastases |  |  | 
COc1ccccc1C(CCNCc1ccccc1)c1ccc(OC(C)C)cc1 (stereo not shown) [AGX-A, N-benzyl-3-(4-isopropoxyphenyl)-3-(2-methoxyphenyl)propan-1-anine] |  |  |  |  |  |  |  |  |  |  | performed better than AGX51 | 3.49 | 5.35
